Key:
BC CML CD34+ cells (LSC) = assay: SL/M2 stromal co-culture, clonogenic survival and self-renewal (replating) assays, BC CML; type: cell-based, human; conditions: imetelstat monotherapy, 1 to 10 μM, vs mismatch control
Text: Lentiviral human wild-type and mutant ADAR1^E912A (pCDH-EF1-T2A-copGFP) and shRNA targeting ADAR1 were produced according to published protocols^27,37. In Vitro MPN-SPC and LSC Survival and Self-Renewal Assays with Imetelstat To assess MPN progenitor and LSC survival and self-renewal in vitro, human primary CD34^+ cells selected from BC CML (n=5), MF (n=9) or age matched normal bone marrow (a-NBM, n=4) were co-cultured with SL/M2 stromal cells for 7-14 days, and then treated with imetelstat alone or combined with dasatinib for BC CML or Pacritinib for MF. Colony forming and replating assays were performed as previously described^32.
To assess MPN progenitor and LSC survival and self-renewal in vitro, human primary CD34^+ cells selected from BC CML (n=5), MF (n=9) or age matched normal bone marrow (a-NBM, n=4) were co-cultured with SL/M2 stromal cells for 7-14 days, and then treated with Imetelstat alone or combined with dasatinib for BC CML or Pacritinib for MF. Colony forming and replating assays were performed as previously described^32,33.
FIG. 3A. A schematic illustration of SL/M2 stromal co-cultures established to quantify in vitro MPN-SPC and LSC survival and self-renewal. Human primary CD34^+ cells selected from BC CML (n=5), MF (n=9) or age matched normal bone marrow (a-NBM, n=4) were co-cultured with SL/M2 stromal cells for 7-14 days. […]

ADAR1 = assay: qRT-PCR gene expression in BC CML CD34+ cells in stromal co-culture; type: cell-based, human; conditions: imetelstat monotherapy 5 μM for 14 days vs mismatch control
Description: (§1) FIG. 7 illustrates supplementary FIG. 2, where gene expression qRT-PCR analyses of human CD34^+ cells sorted from BC CML patient samples (n=3) and MF patient samples (n=5) that were co-cultured with SL/M2 stromal cells and treated with mismatch control or imetelstat at 5 μM for 14 days.

beta-catenin = assay: as above; type: cell-based, human; conditions: imetelstat monotherapy 5 μM for 14 days vs mismatch control
Description: as §1

LSC = assay: Serial transplantation of BC CML LSC mouse model (LSC self-renewal); type: in vivo, mice
Description: FIG. 4H. Self-renewal capacity of human progenitor cells was evaluated in serially transplanted mouse models. FACS analysis of percentage of live human CD34^+CD38^+Lin^− progenitor cells following serial engraftment of cells derived from mice treated with vehicle (red), mismatch (blue) or imetelstat (green).
FIG. 4I. Kaplan-Meier survival curves of mice transplanted with CD34^+ cells selected from imetelstat treated mouse BM (green) compared with mismatch controls (blue).

telomere length = assay: FlowFish telomere length assay in LSC mouse models; type: in vivo, human; conditions: imetelstat compared with mismatch control; p<0.05, t test, ANOVA
Description: Telomere length was determined using the Telomere PNA Kit/FITC for Flow Cytometry (Dako, Cat #K5327) with a MACSQuant10 and analyzed with FlowJo software. The Relative Telomere Length (RTL) was calculated by dividing the mean fluorescence intensity (MFI) of the test sample G0/G1 population by the MFI of the normal peripheral blood reference G0/G1 population using the Cycletest™ Plus DNA Kit (BD, Cat #340242). Telomerase activity was determined using the TRAPeze Kit RT Telomerase Detection Kit (Millipore, Catalog No. S7710).
Samples were selected from engrafted mouse bone marrow or spleen with human CD45+ immunomagnetic beads (Miltenyi). Telomere length was determined by using the Telomere PNA Kit/FITC for Flow Cytometry (Dako, Cat #K5327). Samples were run on the MACSQuant10 and analyzed with FlowJo software. The Relative Telomere Length (RTL) was calculated. The 1301 cell line was utilized as control cells. The DNA index was determined with the (BD Cycletest™ Plus DNA Kit, Cat #340242). The DNA index was obtained by dividing the MFI of the test sample G0/G1 population by the WI of the normal reference G0/G1 population. Human peripheral blood mononuclear cells were used as “the normal reference G0/G1 population” for calculating the DNA index. Telomerase activity was determined by using TRAPeze Kit RT Telomerase Detection Kit (Millipore, Catalog No. S7710). […]

[1] = Tolerability (change in percent body weight) in xenograft models; type: in vivo; conditions: mice transplanted with CB, BC CML or MF progenitors
Text: FIG. 8A graphically illustrates data showing the change in percent body weight in mice transplanted with cord blood (CB) treated with vehicle (black), mismatch control (blue) or imetelstat (red);
FIG. 8B graphically illustrates data showing the change in percent body weight in mice transplanted with BC CML treated with vehicle (black), mismatch control (blue) or imetelstat (red);
FIG. 8C graphically illustrates data showing the change in percent body weight in mice transplanted with myelofibrosis (MF) progenitors treated with vehicle (black), mismatch control (blue) or imetelstat (red);

imetelstat
BC CML LSC replating (self-renewal) capacity (BC CML CD34+ cells (LSC)): ineffective
ADAR1 gene expression by qRT-PCR (ADAR1): ineffective
beta-catenin self-renewal gene expression by qRT-PCR (beta-catenin): ineffective
LSC engraftment after serial transplantation (LSC; compared with mismatch control treatment, p=0.04): significantly less
survival rates of serially transplanted mice (Kaplan-Meier) (LSC; compared with mismatch controls, p=0.05): longer
telomere length (FlowFish assay) (telomere length): normalization of telomere length
tolerability [1]: well tolerated

Reference: patent US20240108734A1, “METHODS FOR TREATING AND AMELIORATING CANCER” (The Regents of the University of California, priority 2021, published 2024)
